15 compounds from patent US20260297081A1, “COMPOUNDS AND METHODS OF TREATING CANCERS” (Cullgen Inc., priority 2023, published 2026) can be followed below.

The test concerns the target CDK4 (Homo sapiens, UniProt P11802+Q16531). The test is described as follows: CDK4 percentage degradation in Calu-1 cells (Table 6). Further details: Cells that express cyclin D1-3 and CDK4/6 proteins were treated with heterobifunctional compounds; endogenous in cells; host or cells: Calu-1. The class given is cell-based. The note with it: 16 hours; for inhibition at 0.04 µM: 40 nM; for inhibition at 0.2 µM: 200 nM. On the procedure: Calu-(cells were treated with heterobifunctional compounds at 40 nM or 200 nM for 16 hours A: protein percentage degradation […]; B: protein percentage degradation <80%, and ≥50%; C: protein percentage degradation <50%, and ≥30%; D; protein percentage degradation […]; -, data not available.
Calu-1, T47D, MCF7, HCC1428 and other cells were cultured at 37° C. with 5% CO2 in RPMI 1640 or DMEM medium supplemented with 10% fetal bovine serum. Cells were authenticated using the short tandem repeat (STR) assays. Mycoplasma test results were negative. For palbo-resistant cell model, T47D cells were cultured long-term to resistance in the presence of 1 μM Palbociclib. Cells were deemed resistant when growing in the presence of Palbo at the same rate as parental cells.
Cultured cells were washed with cold PBS once and lysed in cold RIPA buffer supplemented with protease inhibitors and phosphatase inhibitors (Beyotime Biotechnology). The solutions were then incubated at 4 ? for 30 min with gentle agitation to fully lysed cells. Cell lysates were centrifuged at 13,000 rpm for 10 min at 4 ? and pellets were discarded. Total protein concentrations in the lysates were determined following BCA assays (Beyotime Biotechnology). Cell lysates were mixed with Laemmli loading buffer and heated at 99° C. for 5 min. Proteins were resolved on SDS-PAGE and visualized using Western ECL Substrate kits on a ChemiDoc MP Imaging system (Bio-Rad). Protein bands were quantitated using the Image Lab software provided by Bio-Rad.

CDK4, sequence (P11802 2-303 limits assumed): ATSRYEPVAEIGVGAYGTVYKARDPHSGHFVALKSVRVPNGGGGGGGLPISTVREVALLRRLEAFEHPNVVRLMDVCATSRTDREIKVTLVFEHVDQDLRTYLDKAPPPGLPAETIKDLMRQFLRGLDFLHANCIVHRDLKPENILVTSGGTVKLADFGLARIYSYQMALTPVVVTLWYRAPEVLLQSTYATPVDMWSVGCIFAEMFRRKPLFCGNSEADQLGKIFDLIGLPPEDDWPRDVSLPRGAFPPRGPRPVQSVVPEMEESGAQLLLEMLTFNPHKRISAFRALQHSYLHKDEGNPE
CDK4, sequence (P24385 whole entry partner): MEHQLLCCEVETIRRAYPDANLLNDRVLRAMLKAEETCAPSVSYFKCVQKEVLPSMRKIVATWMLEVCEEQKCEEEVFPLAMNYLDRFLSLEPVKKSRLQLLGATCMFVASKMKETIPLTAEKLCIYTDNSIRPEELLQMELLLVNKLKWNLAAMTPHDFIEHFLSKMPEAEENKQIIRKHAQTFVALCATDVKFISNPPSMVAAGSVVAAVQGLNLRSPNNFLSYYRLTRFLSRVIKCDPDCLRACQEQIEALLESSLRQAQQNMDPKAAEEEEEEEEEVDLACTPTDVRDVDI
CDK4, sequence (Q16531 2-1140 limits assumed): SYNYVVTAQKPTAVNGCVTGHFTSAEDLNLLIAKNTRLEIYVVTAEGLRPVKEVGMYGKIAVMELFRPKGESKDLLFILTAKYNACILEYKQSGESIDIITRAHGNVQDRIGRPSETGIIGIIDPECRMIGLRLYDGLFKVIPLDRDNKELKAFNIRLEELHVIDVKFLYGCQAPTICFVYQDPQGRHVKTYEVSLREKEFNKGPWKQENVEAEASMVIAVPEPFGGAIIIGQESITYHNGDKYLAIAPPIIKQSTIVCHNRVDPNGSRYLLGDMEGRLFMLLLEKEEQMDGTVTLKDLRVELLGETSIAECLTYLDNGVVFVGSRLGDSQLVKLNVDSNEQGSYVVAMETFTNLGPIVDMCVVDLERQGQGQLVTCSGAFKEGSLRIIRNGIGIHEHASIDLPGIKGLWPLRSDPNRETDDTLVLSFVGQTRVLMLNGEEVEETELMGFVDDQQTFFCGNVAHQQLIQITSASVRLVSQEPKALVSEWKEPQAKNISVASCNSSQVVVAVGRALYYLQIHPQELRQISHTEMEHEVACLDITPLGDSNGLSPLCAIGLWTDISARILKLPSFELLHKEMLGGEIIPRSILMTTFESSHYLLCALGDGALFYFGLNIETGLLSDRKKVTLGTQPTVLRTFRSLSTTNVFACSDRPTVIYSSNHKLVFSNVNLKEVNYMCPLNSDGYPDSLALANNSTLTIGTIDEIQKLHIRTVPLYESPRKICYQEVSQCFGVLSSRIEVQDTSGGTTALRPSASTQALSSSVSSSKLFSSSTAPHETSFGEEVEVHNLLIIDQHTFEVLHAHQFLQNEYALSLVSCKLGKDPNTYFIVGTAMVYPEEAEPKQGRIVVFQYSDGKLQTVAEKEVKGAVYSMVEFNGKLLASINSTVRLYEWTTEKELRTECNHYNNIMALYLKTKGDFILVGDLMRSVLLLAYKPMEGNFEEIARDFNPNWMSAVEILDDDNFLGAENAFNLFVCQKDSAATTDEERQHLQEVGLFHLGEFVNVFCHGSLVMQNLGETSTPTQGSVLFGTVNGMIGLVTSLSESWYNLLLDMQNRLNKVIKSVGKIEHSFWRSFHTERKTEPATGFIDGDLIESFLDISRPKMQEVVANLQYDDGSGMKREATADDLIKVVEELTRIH

Compound `CNc1ccc(C(=O)Nc2cccc(C(F)F)n2)c(NC2CC3(CC(NC(=O)CN4CCN(c5ccc(Nc6ncc7c(C)c(C(C)=O)c(=O)n(C8CCCC8)c7n6)nc5)CC4)C3)C2)n1` (stereo not drawn) [CPD-184, 2-((6-(2-(4-(6-((6-acetyl-8-cyclopentyl-5-methyl-7-oxo-7,8-dihydropyrido[2,3-d]pyrimidin-2-yl)amino)pyridin-3-yl)piperazin-1-yl)acetamido)spiro[3.3]heptan-2-yl)amino)-N-(6-(difluoromethyl)pyridin-2-yl)-6-(methylamino)nicotinamide] displayed an inhibition at 0.04 µM of 50 to 80% and an inhibition at 0.2 µM of 50 to 80%.
On to `CNc1ccc(C(=O)Nc2ccc(OC)c(C)n2)c(NC2CC3(CC(NC(=O)CN4CCN(c5ccc(Nc6ncc7c(C)c(C(C)=O)c(=O)n(C8CCCC8)c7n6)nc5)CC4)C3)C2)n1` (stereo not drawn) [CPD-220, 2-((6-(2-(4-(6-((6-acetyl-8-cyclopentyl-5-methyl-7-oxo-7,8-dihydropyrido[2,3-d]pyrimidin-2-yl)amino)pyridin-3-yl)piperazin-1-yl)acetamido)spiro[3.3]heptan-2-yl)amino)-N-(5-methoxy-6-methylpyridin-2-yl)-6-(methylamino)nicotinamide], for which the inhibition at 0.04 µM lay within 30 to 50% and the inhibition at 0.2 µM was 50 to 80%.
Compound `CNc1ccc(C(=O)Nc2ccon2)c(NC2CC3(CC(NC(=O)CN4CCN(c5ccc(Nc6ncc7c(C)c(C(C)=O)c(=O)n(C8CCCC8)c7n6)nc5)CC4)C3)C2)n1` (stereo not drawn) [CPD-159, 2-((6-(2-(4-(6-((6-acetyl-8-cyclopentyl-5-methyl-7-oxo-7,8-dihydropyrido[2,3-d]pyrimidin-2-yl)amino)pyridin-3-yl)piperazin-1-yl)acetamido)spiro[3.3]heptan-2-yl)amino)-N-(isoxazol-3-yl)-6-(methylamino)nicotinamide] showed an inhibition at 0.04 µM of less than 30% and an inhibition at 0.2 µM of 50 to 80%.
Compound `CNc1ccc(C(=O)NC2CCC(N(C)C)C2)c(NCCCCCNC(=O)CN2CCN(c3ccc(Nc4ncc5c(C)c(C(C)=O)c(=O)n(C6CCCC6)c5n4)nc3)CC2)n1` (stereo not drawn) [CPD-55, 2-((5-(2-(4-(6-((6-Acetyl-8-cyclopentyl-5-methyl-7-oxo-7,8-dihydropyrido[2,3-d]pyrimidin-2-yl)amino)pyridin-3-yl)piperazin-1-yl)acetamido)pentyl)amino)-N-(3-(dimethylamino)cyclopentyl)-6-(methylamino)nicotinamide] registered an inhibition at 0.04 µM of less than 30% and an inhibition at 0.2 µM of less than 30%.
For `CC(=O)c1c(C)c2cnc(Nc3ccc(N4CCN(CC(=O)NC5CC6(C5)CC(Nc5nc(C(F)(F)F)ccc5C(=O)Nc5cccc(C7CC7)n5)C6)CC4)cn3)nc2n(C2CCCC2)c1=O` (stereo not drawn) [CPD-121, 2-((6-(2-(4-(6-((6-Acetyl-8-cyclopentyl-5-methyl-7-oxo-7,8-dihydropyrido[2,3-d]pyrimidin-2-yl)amino)pyridin-3-yl)piperazin-1-yl)acetamido)spiro[3.3]heptan-2-yl)amino)-N-(6-cyclopropylpyridin-2-yl)-6-(trifluoromethyl)nicotinamide], the inhibition at 0.04 µM is less than 30% and the inhibition at 0.2 µM lay in the range of 30 to 50%.
For `CNc1ccc(C(=O)Nc2ccc(N(C)C)nn2)c(NCCC2CC(NC(=O)CN3CCN(c4ccc(Nc5ncc6c(C)c(C(C)=O)c(=O)n(C7CCCC7)c6n5)nc4)CC3)C2)n1` (stereo not drawn) [CPD-41, 2-((2-(3-(2-(4-(6-((6-Acetyl-8-cyclopentyl-5-methyl-7-oxo-7,8-dihydropyrido[2,3-d]pyrimidin-2-yl)amino)pyridin-3-yl)piperazin-1-yl)acetamido)cyclobutyl)ethyl)amino)-N-(6-(dimethylamino)pyridazin-3-yl)-6-(methylamino)nicotinamide], the inhibition at 0.04 µM fell in the range of 30 to 50% and the inhibition at 0.2 µM lay in the range of 50 to 80%.
The like results for `CC(=O)c1c(C)c2cnc(Nc3ccc(N4CCN(CC(=O)NCCCCCNc5nc(NC6CCC6)ccc5C(=O)Nc5ccc(N(C)C)nn5)CC4)cn3)nc2n(C2CCCC2)c1=O` [CPD-59, 2-((5-(2-(4-(6-((6-Acetyl-8-cyclopentyl-5-methyl-7-oxo-7,8-dihydropyrido[2,3-d]pyrimidin-2-yl)amino)pyridin-3-yl)piperazin-1-yl)acetamido)pentyl)amino)-6-(cyclobutylamino)-N-(6-(dimethylamino)pyridazin-3-yl)nicotinamide] were, in that order, 50 to 80% and 50 to 80%.
On to `CC(=O)c1c(C)c2cnc(Nc3ccc(N4CCN(CC(=O)NC5CC6(C5)CC(Nc5nc(C)ccc5C(=O)Nc5cccc(C7CC7)n5)C6)CC4)cn3)nc2n(C2CCCC2)c1=O` (stereo not drawn) [CPD-120, 2-((6-(2-(4-(6-((6-Acetyl-8-cyclopentyl-5-methyl-7-oxo-7,8-dihydropyrido[2,3-d]pyrimidin-2-yl)amino)pyridin-3-yl)piperazin-1-yl)acetamido)spiro[3.3]heptan-2-yl)amino)-N-(6-cyclopropylpyridin-2-yl)-6-methylnicotinamide], for which the inhibition at 0.04 µM was less than 30% and the inhibition at 0.2 µM fell in the range of 30 to 50%.
In turn, `CNc1ccc(C(=O)Nc2ccc(N(C)C)nn2)c(NC(=O)CN2CCN(c3ccc(Nc4ncc5c(C)c(C(C)=O)c(=O)n(C6CCCC6)c5n4)nc3)CC2)n1` [CPD-194, 2-(2-(4-(6-((6-acetyl-8-cyclopentyl-5-methyl-7-oxo-7,8-dihydropyrido[2,3-d]pyrimidin-2-yl)amino)pyridin-3-yl)piperazin-1-yl)acetamido)-N-(6-(dimethylamino)pyridazin-3-yl)-6-(methylamino)nicotinamide] registered an inhibition at 0.04 µM of less than 30% and an inhibition at 0.2 µM of less than 30%.
Regarding `CNc1ccc(C(=O)Nc2ccc(OC)c(C3CC3)n2)c(NC2CC3(CC(NC(=O)CN4CCN(c5ccc(Nc6ncc7c(C)c(C(C)=O)c(=O)n(C8CCCC8)c7n6)nc5)CC4)C3)C2)n1` (stereo not drawn) [CPD-125, 2-((6-(2-(4-(6-((6-Acetyl-8-cyclopentyl-5-methyl-7-oxo-7,8-dihydropyrido[2,3-d]pyrimidin-2-yl)amino)pyridin-3-yl)piperazin-1-yl)acetamido)spiro[3.3]heptan-2-yl)amino)-N-(6-cyclopropyl-5-methoxypyridin-2-yl)-6-(methylamino)nicotinamide], the inhibition at 0.04 µM lay within 30 to 50% and the inhibition at 0.2 µM was 30 to 50%.
Compound `CNc1ccc(C(=O)Nc2cc(C3CC3)on2)c(NC2CC3(CC(NC(=O)CN4CCN(c5ccc(Nc6ncc7c(C)c(C(C)=O)c(=O)n(C8CCCC8)c7n6)nc5)CC4)C3)C2)n1` (stereo not drawn) [CPD-215, 2-((6-(2-(4-(6-((6-acetyl-8-cyclopentyl-5-methyl-7-oxo-7,8-dihydropyrido[2,3-d]pyrimidin-2-yl)amino)pyridin-3-yl)piperazin-1-yl)acetamido)spiro[3.3]heptan-2-yl)amino)-N-(5-cyclopropylisoxazol-3-yl)-6-(methylamino)nicotinamide] came in with an inhibition at 0.04 µM of less than 30% and an inhibition at 0.2 µM of less than 30%.
As for `CNc1ccc(NC(=O)c2ccc(NC)nc2NCCCCCNC(=O)CN2CCN(c3ccc(Nc4ncc5c(C)c(C(C)=O)c(=O)n(C6CCCC6)c5n4)nc3)CC2)nn1` [CPD-110, 2-((5-(2-(4-(6-((6-Acetyl-8-cyclopentyl-5-methyl-7-oxo-7,8-dihydropyrido[2,3-d]pyrimidin-2-yl)amino)pyridin-3-yl)piperazin-1-yl)acetamido)pentyl)amino)-6-(methylamino)-N-(6-(methylamino)pyridazin-3-yl)nicotinamide], the inhibition at 0.04 µM was less than 30% and the inhibition at 0.2 µM was 50 to 80%.
`CNc1ccc(C(=O)Nc2cccc(=O)[nH]2)c(NC2CC3(CC(NC(=O)CN4CCN(c5ccc(Nc6ncc7c(C)c(C(C)=O)c(=O)n(C8CCCC8)c7n6)nc5)CC4)C3)C2)n1` (stereo not drawn) [CPD-122, 2-((6-(2-(4-(6-((6-Acetyl-8-cyclopentyl-5-methyl-7-oxo-7,8-dihydropyrido[2,3-d]pyrimidin-2-yl)amino)pyridin-3-yl)piperazin-1-yl)acetamido)spiro[3.3]heptan-2-yl)amino)-6-(methylamino)-N-(6-oxo-1,6-dihydropyridin-2-yl)nicotinamide] showed an inhibition at 0.04 µM of 30 to 50% and an inhibition at 0.2 µM of 50 to 80%.
`CC(=O)c1c(C)c2cnc(Nc3ccc(N4CCN(CC(=O)NC5CC6(C5)CC(Nc5cc(Cl)ccc5C(=O)Nc5cc(C)on5)C6)CC4)cn3)nc2n(C2CCCC2)c1=O` (stereo not drawn) [CPD-259, 2-((6-(2-(4-(6-((6-acetyl-8-cyclopentyl-5-methyl-7-oxo-7,8-dihydropyrido[2,3-d]pyrimidin-2-yl)amino)pyridin-3-yl)piperazin-1-yl)acetamido)spiro[3.3]heptan-2-yl)amino)-4-chloro-N-(5-methylisoxazol-3-yl)benzamide] registered an inhibition at 0.04 µM of less than 30% and an inhibition at 0.2 µM of 30 to 50%.
In the case of `CNc1ccc(C(=O)NC2CC(CN(C)C)C2)c(NCCCCCNC(=O)CN2CCN(c3ccc(Nc4ncc5c(C)c(C(C)=O)c(=O)n(C6CCCC6)c5n4)nc3)CC2)n1` (stereo not drawn) [CPD-65, 2-((5-(2-(4-(6-((6-Acetyl-8-cyclopentyl-5-methyl-7-oxo-7,8-dihydropyrido[2,3-d]pyrimidin-2-yl)amino)pyridin-3-yl)piperazin-1-yl)acetamido)pentyl)amino)-N-(3-((dimethylamino)methyl)cyclobutyl)-6-(methylamino)nicotinamide], the inhibition at 0.04 µM is less than 30% and the inhibition at 0.2 µM is less than 30%.
